Several values for one entry are separate records, joined by “and”; a condition that tells them apart may be missing. Equal entries are not always repeated.
Test system: lipase
Assay: Lipase/lipolysis assay (EnzChek Lipase Substrate, quenched BODIPY-fatty acid conjugate) on stored human milk; further: test concentration or dose not given here

| Compound | Lipase (RFU) |
| --- | --- |
| CCCCC/C=C\C/C=C\CCCCCCCC(=O)O[C@H](COC(=O)CCCCCCCCCCCCCCCCC)COP(=O)([O-])OCC[N+](C)(C)C | 1049.632 RFU |
| O=C(O)CC(O)(C(=O)O)C(O)C(=O)O (centres unmarked) | 1053.487 RFU |
| C[S+](CC[C@H](N)C(=O)[O-])C[C@H]1O[C@@H](n2cnc3c(N)ncnc32)[C@H](O)[C@@H]1O.Cc1ccc(S(=O)(=O)O)cc1.O=S(=O)(O)O.O=S(=O)(O)O (some centres unmarked) | 726.0141 RFU |
| CCCCCCCCCCCCCC(=O)OC[C@H](COP(=O)(O)OCCN)OC(=O)CCCCCCCCCCCCC | 805.4396 RFU |
| 1,4-Dicaffeoylquinic acid | 794.8464 RFU |
| Nc1nc(=O)c2c([nH]1)NCC(CNc1ccc(C(=O)N[C@@H](CCC(=O)O)C(=O)O)cc1)N2C=O (mixture of isomers) [Folinic acid] | 949.4803 RFU |
| O=C1O[C@H]2[C@@H]3OC(=O)c4cc(O)c(O)c(O)c4-c4c(O)c(O)c5oc(=O)c6c(c(O)c(O)c7oc(=O)c4c5c76)-c4c(cc(O)c(O)c4O)C(=O)OC[C@H]3OC(O)[C@@H]2OC(=O)c2cc(O)c(O)c(O)c2-c2c1cc(O)c(O)c2O (mixture of isomers) [Punicalagin] | 646.9241 RFU |
| c1cncc([C@@H]2CCCCN2)c1 (racemic) [(±) Anabasine] | 1022.058 RFU |
| C[N+](C)(C)CC(O)CC(=O)[O-] (racemic) [D,L-Carnitine] | 1067.602 RFU and 1032.196 RFU |
| CCSCCC(N)C(=O)O (racemic) [D,L-Ethionine] | 921.5463 RFU |
| NC(=O)CCCCC1CCSS1 (racemic) [D,L-Lipoamide] | 1094.48 RFU |
| O=C(O)CC(O)C(=O)O (racemic) [D,L-Malic Acid] | 781.9881 RFU |
| NC(Cc1ccc(O)c(O)c1)C(=O)O (racemic) [DL-Dopa] | 819.29 RFU |
| CC1CCC(C(C)C)C(O)C1 (racemic) [DL-Menthol] | 1275.242 RFU |
| NC(COP(=O)(O)O)C(=O)O (racemic) [DL-O-Phosphoserine] | 728.85 RFU |
| NC(Cc1ccccc1O)C(=O)O (racemic) [DL-O-Tyrosine] | 919.2122 RFU |
| O=C(O)C(O)C(O)C(=O)O (racemic) [DL-Tartaric acid] | 1079.017 RFU |
| NC(Cc1c[nH]c2ccccc12)C(=O)O (racemic) [DL-Tryptophan] | 935.3545 RFU |
| CC(=O)Oc1c(C)c(C)c2c(c1C)CCC(C)(CCCC(C)CCCC(C)CCCC(C)C)O2 (racemic) [DL-α-Tocopherol acetate] | 697.673 RFU |
| Cc1cc(O)c(C)c2c1O[C@](C)(CCC[C@H](C)CCC[C@H](C)CCCC(C)C)CC2 (relative stereo) [(rel)-β-Tocopherol] | 1146.301 RFU |
| CC1(C)CCCC2(C)OC(=O)C=C12 (single isomer, unassigned; (+)) [(+)-Dihydroactinidiolide] | 951.3124 RFU |
| COC1=CC(=O)OC(/C=C/c2ccccc2)C1 (single isomer, unassigned; (+)) [(+)-Kavain] | 895.974 RFU |
| COc1cc([C@H]2OC[C@@H]3C(c4cc(OC)c(O)c(OC)c4)OC[C@H]23)ccc1O (single isomer, unassigned; (+)) [(+)-Medioresinol] | 1166.732 RFU |
| COc1cc(C=CC(=O)O)cc(OC)c1O (stereo in doubt) [Sinapinic acid] | 1040.338 RFU |

| Compound | Lipase (RFU) |
| --- | --- |
| COc1ccccc1OC [1,2-Dimethoxybenzene] | 1094.378 RFU and 752.9866 RFU |
| CC(O)CO (centres unmarked) [1,2-Propanediol] | 1150.168 RFU |
| C1CSCSC1 [1,3-Dithiane] | 1179.502 RFU |
| CC(C)C12CCC(C)(CC1)O2 [1,4-Cineole] | 770.6625 RFU and 1018.049 RFU |
| Cl.Cl.NCCCCN [1,4-Diaminobutane (dihydrochloride)] | 865.534 RFU |
| CC(=O)C(=O)c1ccccc1 [1-Phenylpropane-1,2-dione] | 1078.742 RFU |
| COC1=CC(=O)C=C(OC)C1=O [2,6-Dimethoxy-1,4-benzoquinone] | 934.6959 RFU |
| O=C1c2ccccc2C(=O)c2cc(CO)ccc21 [2-(Hydroxymethyl)anthraquinone] | 723.6408 RFU |
| NC(=O)NCCCC(N)C(=O)O (centres unmarked) [2-Amino-5-ureidopentanoic acid] | 983.9261 RFU |
| NCCO [2-Aminoethanol] | 533.8 RFU |
| NCCP(=O)(O)O [2-Aminoethyl Phosphonic Acid] | 863.4665 RFU |
| COc1ccccc1C(=O)O [2-Methoxybenzoic acid] | 739.8823 RFU and 1090.701 RFU |
| CC(=O)c1ccccc1N [2′-Aminoacetophenone] | 970.2571 RFU |
| Nc1ncnc2c1ncn2[C@H]1C[C@H](O)[C@@H](CO)O1.O [2′-Deoxyadenosine monohydrate] | 945.7798 RFU |
| Nc1nc2c(ncn2[C@H]2C[C@H](O)[C@@H](CO)O2)c(=O)[nH]1.O [2′-Deoxyguanosine monohydrate] | 782.4513 RFU |
| COc1cc(C(=O)O)cc(OC)c1OC [3,4,5-Trimethoxybenzoic acid] | 1121.402 RFU |
| COc1cc(C=CC(=O)O)cc(OC)c1OC [3,4,5-Trimethoxycinnamic acid] | 1076.789 RFU |
| O=C(/C=C/c1ccc(O)c(O)c1)O[C@H]1[C@H](O)C[C@](O)(C(=O)O)C[C@H]1OC(=O)/C=C/c1ccc(O)c(O)c1 [3,4-Dicaffeoylquinic acid] | 721.4239 RFU |
| CC(=O)O[C@@H]1CC[C@@]2(C)[C@@H](CC[C@]3(C)[C@@H]2CC=C2[C@@H]4[C@@H](C)[C@H](C)CC[C@]4(C)CC[C@]23C)[C@@]1(C)C(=O)O [3-Acetyl-beta-boswellic acid] | 752.9436 RFU |
| CCCC=C1OC(=O)c2ccccc21 [3-Butylidenephthalide] | 952.6722 RFU |
| CC1(C)CC[C@]2(C(=O)O)CC[C@]3(C)C(=CC[C@@H]4[C@@]5(C)CC[C@@H](O)C(C)(C)[C@@H]5CC[C@]43C)[C@@H]2C1 [3-Epioleanolic acid] | 1064.911 RFU |
| C[C@H]1[C@H](C)CC[C@]2(C(=O)O)CC[C@]3(C)C(=CC[C@@H]4[C@@]5(C)CC[C@H](O)C(C)(C)[C@@H]5CC[C@]43C)[C@H]12 [3-Epiursolic Acid] | 968.3096 RFU |
| COc1cc(CCN)ccc1O.Cl [3-Methoxytyramine (hydrochloride)] | 963.841 RFU |
| COc1ccc(-c2cc(=O)c3c(OC)c(OC)c(OC)c(OC)c3o2)cc1O [3′-Demethylnobiletin] | 794.5882 RFU |

| Compound | Lipase (RFU) |
| --- | --- |
| O=C(C=Cc1ccc(O)c(O)c1)OC1CC(O)(C(=O)O)CC(O)C1OC(=O)C=Cc1ccc(O)c(O)c1 (centres unmarked) [4,5-Dicaffeoylquinic acid] | 1065.884 RFU |
| CC(=O)c1ccc(O)cc1 [4-Hydroxyacetophenone] | 724.0191 RFU |
| N#CCc1ccc(O)cc1 [4-Hydroxybenzyl cyanide] | 1050.204 RFU |
| COc1cc(OC)c2c(=O)cc(-c3ccc(OC)c(OC)c3)oc2c1 [5,7,3′,4′-Tetramethoxyflavone] | 1023.427 RFU |
| Cl.NCC(=O)CCC(=O)O [5-Aminolevulinic acid (hydrochloride)] | 643.3591 RFU |
| COc1ccc(-c2cc(=O)c3c(O)c(OC)c(OC)cc3o2)cc1OC [5-Desmethylsinensetin] | 571020.7 RFU |
| OCCc1c[nH]c2ccc(O)cc12 [5-Hydroxytryptophol] | 681.6533 RFU |
| O=C(CO)[C@@H](O)[C@H](O)[C@@H](O)C(=O)O [5-Keto-D-Gluconic Acid] | 922.1469 RFU |
| COc1ccc2[nH]cc(CCO)c2c1 [5-Methoxytryptophol] | 1031.531 RFU |
| O=C(C=Cc1ccc(O)c(O)c1)OC1CC(C(=O)O)=CC(O)C1O (centres unmarked) [5-O-Caffeoylshikimic acid] | 1072.132 RFU |
| CC(=O)[C@H]1CC[C@H]2[C@@H]3CC[C@H]4CC(=O)CC[C@]4(C)[C@H]3CC[C@]12C [5a-Pregnane-3,20-dione] | 1117.705 RFU |
| Nc1nc2c(ncn2[C@@H]2O[C@H](COP(=O)([O-])[O-])[C@@H](O)[C@H]2O)c(=O)[nH]1.[Na+].[Na+] [5′-Guanylic acid (disodium salt)] | 910.9839 RFU |
| COc1ccc(-c2cc(=O)c3c(OC)cc(OC)c(OC)c3o2)cc1 [6-Demethoxytangeretin] | 818.2248 RFU |
| O=c1cc(-c2ccc(O)c(O)c2)oc2cc(O[C@@H]3O[C@H](CO)[C@@H](O)[C@H](O)[C@H]3O)c(O)c(O)c12 [6-Hydroxyluteolin 7-glucoside] | 1135.118 RFU |
| O=C(O)c1ccc(O)nc1 [6-Hydroxynicotinic acid] | 655.7069 RFU |
| C[C@H](O)[C@H](O)C1=Nc2c(nc(N)[nH]c2=O)NC1 [7,8-Dihydro-L-biopterin] | 1090.909 RFU |
| C[C@H](CCC(=O)O)[C@H]1CC[C@H]2[C@@H]3C(=O)C[C@@H]4C[C@H](O)CC[C@]4(C)[C@H]3CC[C@]12C [7-Ketolithocholic acid] | 991.8245 RFU |
| C[C@H](CCC(=O)O)[C@H]1CC[C@H]2[C@@H]3C(=O)C[C@@H]4C[C@H](O)CC[C@]4(C)[C@H]3C[C@H](O)[C@]12C [7-keto-Deoxycholic acid] | 890.8412 RFU |
| CC(C)CCC[C@@H](C)[C@H]1CC[C@H]2C3=C(CC[C@]12C)[C@@]1(C)CC[C@H](O)CC1=CC3 [8-Dehydrocholesterol] | 707.3733 RFU |
| C[C@]12CCC(=O)C=C1CC[C@@H]1[C@@H]2[C@@H](O)C[C@]2(C)C(=O)CC[C@@H]12 [11-Beta-hydroxyandrostenedione] | 1190.299 RFU |
| O=C(O)CCCCCCCCCCCO [12-Hydroxydodecanoic acid] | 778.3097 RFU |
| C[C@H](CCC(=O)O)[C@H]1CC[C@H]2[C@@H]3CC[C@@H]4CC(O)CC[C@]4(C)[C@H]3CC(=O)[C@]12C (some centres unmarked) [12-Ketodeoxycholic acid] | 778.2255 RFU |
| CC(=O)[C@@]1(O)CC[C@H]2[C@@H]3CCC4=CC(=O)CC[C@]4(C)[C@H]3CC[C@@]21C [17α-Hydroxyprogesterone] | 867.6703 RFU |

— patent publication US12507703B2, “Methods, devices and compositions for preserving human milk” (The Trustees of Princeton University, priority 2023, dated 2025)
